Laboratory results published in publication PMC10872342, “9S1R nullomer peptide induces mitochondrial pathology, metabolic suppression, and enhanced immune cell infiltration, in triple-negative breast cancer mouse model” (Biomedicine & pharmacotherapy = Biomedecine & …, 2023).
“Also recorded” adds a separate entry of the source. Ends that are not written are not given here.

Key:
[1] = tested on: 4T1.2 cells; experiment: LC-MS detection of peptide internalization within cells; type: cell-based, mouse; details: 50uM, 2h, PBS wash, lysis, 3KDa filter, 3+ and 4+ forms
Protocol: Supplementary Fig 1: Detection of peptide internalization and stability within cells. (A) LC-MS Graph showing peak of peptide only spike at 1mg/ml final concentration (positive control) (B) Sample-1: 2 × 10^5 4T1.2 cells lysate was filtered through a 3KDa cut-off Amicon protein filters (Millipore) to get rid of proteins larger than 3KDa, followed by LC-MS detection (negative control). (C) Sample-2: 2 × 10^5 4T1.2 cells lysate (50ul) was mixed with the peptide at 1mg/ml final concentration and incubated for 30 mins followed by filtering through 3 KDa cut-off filter and LC-MS detection. (D) Sample-3: 50 ul of filtered cell lysate or Sample-1 was mixed with the peptide at 1mg/ml final concentration and incubated for 30 mins followed by LC-MS detection. (E) Sample-4: Cells were treated with 50uM of peptide and incubated for 2h followed by washing in PBS, lysis, passing through 3KDa protein filter, and detection by LC-MS. […] (G) Enlarged peaks from- C, Sample-2 with (H) extracted ion chromatogram (EIC) peaks of the detected peptide at the exact 3+ and 4+ valance forms (red circles). (I) Enlarged peaks from- E, Sample-4 with (J) extracted ion chromatogram (EIC) peaks of the detected peptide at the exact 3+ and 4+ valance forms (red circles).

[2] = Half-life of peptide 9S1R in serum; type: in vitro ADME; details: bovine, fetal bovine serum; peptide spiked into FBS, 37 °C, exposure 30 s, 5, 30, 60, 90 min; 75% ice cold acetonitrile precipitation; HPLC-QTOF MS, log2 EIC peak area vs time; read-out: half-life (t1/2) in fetal bovine serum
Protocol: The half-life of peptide 9S1R was determined by spiking the peptide into fetal bovine serum (FBS) for exposure times of 30 s and 5, 30, 60 or 90 min. During the exposure, FBS containing the spike peptides were incubated at 37 °C. The exposure was halted, and the peptide was extracted from FBS using protein precipitation. Protein precipitation was accomplished using 75% ice cold acetonitrile, followed by incubation at − 20 °C for one hour, and centrifugation at 9000 rpm for 10 min at […]. The supernatant was removed and saved for analysis. Peptide samples were analyzed by High pressure liquid chromatography (HPLC) mass spectrometry (MS) using an ultra-high-resolution Quadrupole Time of Flight (QTOF) instrument (Bruker maxis, Bruker Corporation, Billerica, MA, USA). HPLC mobile phase consisted of 18 MΩ H2O and HPLC grade formic acid and acetonitrile (> 99% purity, Fisher Scientific, Pittsburgh, PA, USA). The electrospray ionization (ESI) source was operated under the following conditions: positive ion mode; nebulizer pressure: 1.2 Bar; flow rate of drying gas (N2): 8 L/min; drying gas temperature: 200 °C; voltage between HV capillary and HV end-plate offset: 3000 V to – 500 V; mass range was set from 250 to 2900 m/z; and the quadrupole ion energy was 4.0 eV. […]

[3] = tested on: 4T1.2-Luc TNBC tumors in Balb/c mice; experiment: Pilot study, 4T1.2-Luc bilateral mammary tumor model, six IP doses; type: in vivo, mouse; details: study-1, trehalose only group
Excerpt: The model was created by orthotopically injecting 4T1.2-Luc cells in the 4th mammary fat pad of Balb/c mice, with 1 × 10^5 cells per mouse. The cell line was developed by Dr. Cheryl L. Jorcyk and expresses the luciferase gene which serves as a luminescent indicator of gene expression or tumorigenesis, making the tumor cell traceable in vivo. Treatment started after the formation of palpable tumors and was detected by in vivo BLI (IVIS, Perkin Elmer) followed by randomization of the animals per group. For evaluating the effect of the peptides on this model, we carried out two separate studies. The first pilot study involved a set of 4 mice per group with bilateral mammary tumors, which received six IP administration of PBS, 9S1R-NulloPT drug at 50 mg/kg, 100 mg/kg body weight or Trehalose, over a period of 2 weeks. The present study includes a set of 7–9 mice per group with unilateral tumors including the same groups as in the pilot study, but received a total of eight injections per mouse over a period of 2 weeks. […]
Supplementary Fig 2: Detailed results from pilot first study with six IP administration of PBS (control), Trehalose, 50mg/kg NulloPT and 100 mg/kg NulloPT in TNBC mice. […] Treatment started after the formation of palpable tumors and was detected by an in vivo BLI system (IVIS, Perkin Elmer) followed by randomization of the animals per group. […]

[4] = tested on: 4T1.2-Luc TNBC tumors in Balb/c mice; experiment: 4T1.2-Luc orthotopic TNBC mouse model, unilateral tumors, eight IP doses; type: in vivo; details: trehalose only group, H&E scoring
Excerpt: The model was created by orthotopically injecting 4T1.2-Luc cells in the 4th mammary fat pad of Balb/c mice, with 1 × 10^5 cells per mouse. The cell line was developed by Dr. Cheryl L. Jorcyk and expresses the luciferase gene which serves as a luminescent indicator of gene expression or tumorigenesis, making the tumor cell traceable in vivo. Treatment started after the formation of palpable tumors and was detected by in vivo BLI (IVIS, Perkin Elmer) followed by randomization of the animals per group. For evaluating the effect of the peptides on this model, we carried out two separate studies. […]
Mice were anesthetized by isoflurane followed by measurement of the tumor length and width using a manual Vernier caliper. This was performed before every drug administration and the tumor volume was calculated using the formula (length × width^2)/2. Body weights were also measured before every dose of the drug.
Whole-body bioluminescence imaging (BLI) using the In Vivo Imaging System (IVIS® Spectrum, Perkin Elmer) was performed to detect in vivo tumor burden and metastasis, as evaluated by the bioluminescence signal from the 4T1.2-Luc cells. […] The images were analyzed by Perkin Elmer software and Aura Version 4.0.7 (Spectral instruments Imaging). […]

Row | Molecule | uptake of native untagged peptide inside cells by mass spectrometry [1] | half-life [2] [min] | tumor size with trehalose alone [3] | immune cell infiltration or margin inflammation on the tumors [4]
1 | RRRRRWCMNW [9S1R] | detected inside cells in two forms; also recorded: available inside the cells | 8.7 |  | 
2 | OC[C@H]1O[C@H](O[C@H]2O[C@H](CO)[C@@H](O)[C@H](O)[C@H]2O)[C@H](O)[C@@H](O)[C@@H]1O [Trehalose] |  |  | higher than control tumor size | did not show any effect
